Measurements from patent US9809597B2, “Ganciclovir derivatives for modulating innate and adaptive immunity and for use in immunotherapy” (The Board of Trustees of the Leland Stanford Junior …, priority 2015, dated 2017).

Tests used:
[1] = tested on: BV-2 cells; assay: RT-PCR for CXCL10 and IFNβ transcripts in BV-2 cells; assay type: cell-based, mouse; details: for induction of CXCL10 mRNA / induction of IFNβ transcript: 200 μM; for induction of IFNβ transcript: microglia (BV-2, primary); for induction of CXCL10 mRNA on neutralization of IFNβ with an antibody: 200 μM with anti-IFNβ antibody, 4 hours
Method: (§1) BV-2 mouse microglia cells were grown in DMEM+10% FBS and THP-1 human monocyte cells were grown in RPMI-40+10% FBS+0.05 mM β-mercaptoethanol at 37° C., 5% CO2. Adherent cells were split using 1×TrypLE (Gibco). For cellular assays, cells were treated with the following concentrations of drugs as indicated in the DMEM without serum: 100-200 μM ganciclovir, 10 ng/ml IFNγ (R&D systems), 100 ng/ml LPS (Sigma-Aldrich), 1-10 μM Fludarabine (Selleckchem), 1 μM Ruxolitinib (Selleckchem), 1 μM TG-101348 (Selleckchem), 1 μM Amlexanox (Tocris bioscience) unless otherwise noted. All experiments were run in triplicates and replicated at least 3 times with cell lines and at least twice with primary microglia. Average data are shown for cell lines and representative data are shown for primary cells. Secreted signaling proteins were measured in supernatants from cultured cells stimulated with GCV and conditioned for 24 hours in the absence of serum using two independent Luminex arrays (Human Immune Monitoring Center, Stanford and Eve technologies, Canada). Nitrite assay was performed on conditioned culture supernatants of cells stimulated with drugs for 24 hours using the Griess Reagent System (Promega) according to manufacturer's instructions. To assess cellular viability, cell confluence was measured using an automated microscope (Cellavista; Roche).
(§2) RNA was isolated from cells using RNeasy mini kit from Qiagen. DNased RNA was converted to cDNA using SuperScript III reverse transcriptase kit (Life technologies). The cDNA was used to quantify specific targets using SYBR green in Roche Lightcycler 480. ΔΔCt values normalized against the experimental control to determine fold change in mRNA for each sample compared to untreated or vehicle treated control. β-actin or Ubc or both were used as housekeeping genes. Primer sequences were obtained from PrimerBank. Fold change is shown compared to the vehicle treated or untreated cells, unless otherwise noted.

[2] = tested on: THP-1 human monocyte cells; assay: RT-PCR for CXCL10 in THP-1 cells; assay type: cell-based; details: 200 μM, 8-24 hours
Method: as §1, with “Roche). […]” for “Roche).”

[3] = tested on: BV-2 microglia; assay: siRNA knockdown (STING, IRF3, Stat1, Jak2), then RT-PCR for CXCL10; assay type: cell-based, mouse; details: for CXCL10 or IFNβ mRNA expression after siRNA knockdown of Stat1 and Jak2 or lack of Stat1: BV-2 cells (siRNA) or Stat1 knockout primary microglia, 200 μM
Method: Smartpool siRNAs against mouse targets were bought from Dharmacon and transfected in microglia cells using Viromer Blue from Lipocalyx at a concentration of 50 nM according to manufacturer's instructions. Drugs were added cells after 24 hours of transfection and assays done 24 hours after addition of drugs.
as §2

[4] = tested on: primary microglia; assay: RT-PCR for CXCL10 and IFNβ transcripts in primary microglia (wildtype, tk KO, STING^gt/gt); assay type: cell-based, mouse; details: 200 μM, 6 hours; for CXCL10 mRNA in microglia from tk1 knockout mice: adult tk1 knockout primary microglia; for induction of CXCL10 mRNA in STING^gt/gt primary microglia / induction of IFNβ mRNA in STING^gt/gt primary microglia: primary microglia lacking functional STING
Method: Mice were housed and bred according to the Institutional Animal Care and Use Committee guidelines. Primary microglia and astrocytes were isolated from P0-P3 C57BL/6 mouse pups. Cortices from pups were isolated, meninges removed and tissue was dissociated using a 25-gauge needle. Two cortices were plated on each poly-L-lysine coated T-75 flasks in DMEM/F12+10% FBS+1% penicillin/streptomycin. Microglia and astrocyte co-cultures were maintained for 3 weeks, after which microglia were isolated using CD11b magnetic beads (Miltenyi Biotec) according to the manufacturer's instructions. Isolated microglia were allowed to recover for 1-2 days and processed for cellular assays described above.
For tk KO experiments only, microglia were isolated from adult mouse brains using the neural dissociation kit (Miltenyi Biotec) according to manufacturer's protocol followed by CD11b magnetic bead enrichment. Isolated cells were cultured for 3-4 days before the experiment.
as §2

[5] = tested on: IFNγ/LPS stimulated BV-2 microglia; assay: Nitrite assay (Griess) on culture supernatants; assay type: cell-based, mouse; details: 24 hours
Method: as §1

[6] = tested on: BV-2 and primary microglia stimulated with IFNγ and LPS; assay: RT-PCR of inflammatory transcripts in IFNγ/LPS stimulated microglia; assay type: cell-based, mouse; details: IFNγ/LPS stimulated BV-2 microglia, 200 μM, 24 hours
Method: BV-2 mouse microglia cells were grown in DMEM+10% FBS and THP-1 human monocyte cells were grown in RPMI-40+10% FBS+0.05 mM β-mercaptoethanol at 37° C., 5% CO2. Adherent cells were split using 1×TrypLE (Gibco). For cellular assays, cells were treated with the following concentrations of drugs as indicated in the DMEM without serum: 100-200 μM ganciclovir, 10 ng/ml IFNγ (R&D systems), 100 ng/ml LPS (Sigma-Aldrich), 1-10 μM Fludarabine (Selleckchem), 1 μM Ruxolitinib (Selleckchem), 1 μM TG-101348 (Selleckchem), 1 μM Amlexanox (Tocris bioscience) unless otherwise noted. All experiments were run in triplicates and replicated at least 3 times with cell lines and at least twice with primary microglia. Average data are shown for cell lines and representative data are shown for primary cells. Secreted signaling proteins were measured in supernatants from cultured cells stimulated with GCV and conditioned for 24 hours in the absence of serum using two independent Luminex arrays (Human Immune Monitoring Center, Stanford and Eve technologies, Canada). Nitrite assay was performed on conditioned culture supernatants of cells stimulated with drugs for 24 hours using the Griess Reagent System (Promega) according to manufacturer's instructions. To assess cellular viability, cell confluence was measured using an automated microscope (Cellavista; Roche). Mice were housed and bred according to the Institutional Animal Care and Use Committee guidelines. Primary microglia and astrocytes were isolated from P0-P3 C57BL/6 mouse pups. Cortices from pups were isolated, meninges removed and tissue was dissociated using a 25-gauge needle. Two cortices were plated on each poly-L-lysine coated T-75 flasks in DMEM/F12+10% FBS+1% penicillin/streptomycin. Microglia and astrocyte co-cultures were maintained for 3 weeks, after which microglia were isolated using CD11b magnetic beads (Miltenyi Biotec) according to the manufacturer's instructions. Isolated microglia were allowed to recover for 1-2 days and processed for cellular assays described above. RNA was isolated from cells using RNeasy mini kit from Qiagen. […] was converted to cDNA using SuperScript III reverse transcriptase kit (Life technologies). The cDNA was used to quantify specific targets using SYBR green in Roche Lightcycler 480. ΔΔCt values normalized against the experimental control to determine fold change in mRNA for each sample compared to untreated or vehicle treated control. β-actin or Ubc or both were used as housekeeping genes. Primer sequences were obtained from PrimerBank. Fold change is shown compared to the vehicle treated or untreated cells, unless otherwise noted.

[7] = BV-2 microglia, siRNA 24 hours, then 200 μM for 24 hours

Nc1nc2c(ncn2COCCO)c(=O)[nH]1 [Acyclovir]
induction of CXCL10 mRNA ([1]; BV-2 cells, 24 hours): failed to induce

CC(C)c1ccc2oc3nc(N)c(C(=O)O)cc3c(=O)c2c1 [Amlexanox]
inhibition of CXCL10 mRNA induction by GCV and diGCV (Tbk1 inhibition) ([1]; BV-2 cells, 1 μM Amlexanox with 200 μM GCV or diGCV, 24 hours): inhibited

Nc1ccn(C[C@@H](CO)OCP(=O)(O)O)c(=O)n1 [Cidofovir]
induction of CXCL10 mRNA ([1]; BV-2 cells, 24 hours): failed to induce

Cc1ccc2c(=O)c3cccc(CC(=O)O)c3oc2c1C [DMXAA]
induction of CXCL10 mRNA in human monocyte cell line [2]: did not
induction of CXCL10 mRNA ([1]; BV-2 cells, 24 hours): strongly induced
induction of IFNβ transcript [1]: strongly induced

O=C(O)P(=O)(O)O [Foscarnet]
induction of CXCL10 mRNA ([1]; BV-2 cells, 24 hours): failed to induce

Nc1nc2c(ncn2CCC(CO)CO)c(=O)[nH]1 [Penciclovir]
induction of CXCL10 mRNA ([1]; BV-2 cells, 24 hours): failed to induce

NC(=O)c1ncn([C@@H]2O[C@H](CO)[C@@H](O)[C@H]2O)n1 [Ribavirin]
induction of CXCL10 mRNA ([1]; BV-2 cells, 24 hours): failed to induce

Cc1cnc(Nc2ccc(OCCN3CCCC3)cc2)nc1Nc1cccc(S(=O)(=O)NC(C)(C)C)c1 [TG101348]
inhibition of CXCL10 production in response to GCV and diGCV ([1]; BV-2 cells, 24 hours, 10 μM Fludarabine or 1 μM Jak inhibitor with 200 μM GCV or diGCV): strongly inhibited
inhibition of CXCL10 production in response to cGAMP ([1]; BV-2 cells, 24 hours, 10 μM Fludarabine or 1 μM Jak inhibitor with 200 μM cGAMP): somewhat less pronounced

Nc1ncnc2c1ncn2[C@@H]1O[C@H](CO)[C@@H](O)[C@@H]1O [Vidarabine]
induction of CXCL10 mRNA ([1]; BV-2 cells, 24 hours): failed to induce

Nc1nc2c(ncn2[C@@H]2O[C@@H]3COP(=O)(O)O[C@H]4[C@@H](O)[C@H](n5cnc6c(=O)[nH]c(N)nc65)O[C@@H]4COP(=O)(O)O[C@H]3[C@H]2O)c(=O)[nH]1 [c-diGMP]
induction of CXCL10 mRNA ([1]; BV-2 cells, 24 hours): strongly induced
induction of IFNβ transcript [1]: strongly induced

Nc1nc2c(ncn2[C@@H]2O[C@@H]3COP(=O)(O)O[C@H]4[C@@H](O)[C@H](n5cnc6c(N)ncnc65)O[C@@H]4COP(=O)(O)O[C@@H]2[C@@H]3O)c(=O)[nH]1 [cGAMP, cyclic-GAMP]
induction of CXCL10 mRNA on neutralization of IFNβ with an antibody ([1]; BV-2 cells): partly reduced
induction of CXCL10 mRNA ([1]; BV-2 cells, 24 hours): strongly induced
induction of IFNβ transcript [1]: strongly induced
CXCL10 or IFNβ mRNA expression after siRNA knockdown of Stat1 and Jak2 or lack of Stat1 [3]: significantly reduced

NC1=Nc2c(ncn2COC(CO)CO)C(OCCOCCOCCOCCOc2nc(N)nc3c2ncn3COC(CO)CO)N1 (centres unmarked) [diGCV, 2-({2-Amino-6-[2-(2-{2-[2-(2-amino-9-{[2-hydroxy-1-(hydroxymethyl)ethoxy]methyl}-9H-purin-6-yloxy)ethoxy]ethoxy}ethoxy)ethoxy]-6,9-dihydro-1H-purin-9-yl}methoxy)-1,3-propanediol]
CXCL10 mRNA in microglia from tk1 knockout mice [4]: triggered CXCL10 independent of endogenous tk1
induction of CXCL10 mRNA in STING^gt/gt primary microglia [4]: failed to induce
induction of IFNβ mRNA in STING^gt/gt primary microglia [4]: failed to induce
microglial nitric oxide production (nitrite assay) [5]: potently reduced
inflammatory markers (transcripts) [6]: potently reduced
induction of CXCL10 mRNA on neutralization of IFNβ with an antibody ([1]; BV-2 cells): partly reduced
induction of CXCL10 mRNA ([1]; BV-2 cells, 24 hours): increased potency
CXCL10 or IFNβ mRNA expression after siRNA knockdown of Stat1 and Jak2 or lack of Stat1 [3]: significantly reduced
capacity to induce CXCL10 after siRNA knock down of STING [3, 7]: largely abrogated
potential to induce CXCL10 mRNA after siRNA knockdown of IRF3 [3, 7]: inhibited

Nc1nc2nc[nH]c2c(=O)[nH]1 [guanine]
induction of CXCL10 mRNA ([1]; BV-2 cells, 24 hours): failed to induce

Nc1nc2c(ncn2[C@@H]2O[C@H](CO)[C@@H](O)[C@H]2O)c(=O)[nH]1 [guanosine]
induction of CXCL10 mRNA ([1]; BV-2 cells, 24 hours): failed to induce

NC1=Nc2c(ncn2COC(CO)CO)C(OCCOCCOCCOCCO)N1 (centres unmarked) [monoGCV, 2-{[2-Amino-6-(2-{2-[2-(2-hydroxyethoxy)ethoxy]ethoxy}ethoxy)-6,9-dihydro-1H-purin-9-yl]methoxy}-1,3-propanediol]
CXCL10 mRNA in microglia from tk1 knockout mice [4]: triggered CXCL10 independent of endogenous tk1
induction of CXCL10 mRNA in STING^gt/gt primary microglia [4]: failed to induce
induction of IFNβ mRNA in STING^gt/gt primary microglia [4]: failed to induce
microglial nitric oxide production (nitrite assay) [5]: potently reduced
inflammatory markers (transcripts) [6]: potently reduced
induction of CXCL10 mRNA on neutralization of IFNβ with an antibody ([1]; BV-2 cells): partly reduced
CXCL10 or IFNβ mRNA expression after siRNA knockdown of Stat1 and Jak2 or lack of Stat1 [3]: significantly reduced

NC1=Nc2c(ncn2COC(CO)CO)C(OCCCSSCCCOC2NC(N)=Nc3c2ncn3COC(CO)CO)N1 (centres unmarked) [thiol-GCV, 2-[(2-Amino-6-{3-[3-(2-amino-9-{[2-hydroxy-1-(hydroxymethyl)ethoxy]methyl}-6,9-dihydro-1H-purin-6-yloxy)propyldithio]propoxy}-6,9-dihydro-1H-purin-9-yl)methoxy]-1,3-propanediol]
induction of CXCL10 mRNA ([1]; BV-2 cells, 24 hours): increased potency
